Literature values as cited in patent publication US20100143470A1, “CONTROLLED RELEASE PHARMACEUTICAL COMPOSITION CONTAINING THIAZIDES AND ANGIOTENSIN-II-RECEPTOR BLOCKERS” (HANALL PHARMACEUTICAL COMPANY, LTD, priority 2006, published 2010).

Tests used:
[1] = orally administered for hypertension therapy

| time to reach the highest blood concentration (after absorption from the small intestine) [h] | blood elimination rate (in vivo) [mL/min] | blood half-time (in vivo) [h] | SMILES | diuretic effect is sustained [1] [h] |
| --- | --- | --- | --- | --- |
| ≤ 1 | 600 |  | CCCCc1nc(Cl)c(CO)n1Cc1ccc(-c2ccccc2-c2nn[nH]n2)cc1 [losartan] |  |
|  |  | 5.6 to 14.8 | NS(=O)(=O)c1cc2c(cc1Cl)NCNS2(=O)=O [Hydrochlorothiazide, 6-chloro-3,4-dihydro-2H-1,2,4-benzothiadiazine-7-sulfonamide-1,1-dioxide] | 6 to 12 |
